Data set [1] can be described thus: Cu-63 in brain and plasma of treated MPTP-lesioned mice by ICPMS. Here is the method: (§1) CuATSM:gluconic acid (1:2) was prepared according to the method of EXAMPLE 7. CuATSM:saccharin (1:2) was prepared according to the methods of EXAMPLE 3. CuATSM was suspended in “Standard Suspension Vehicle” (SSV), consisting of 0.9% (w/v) NaCl, 0.5% (w/v) sodium carboxymethylcellulose, 0.5% (v/v) benzyl alcohol, and 0.4% (v/v) Tween 80 in deionized water. CuATSM:gluconic acid (1:2) and CuATSM:saccharin (1:2) were suspended in sterile water. Samples were prepared by adding one of the compounds to the liquid vehicle (water or SSV) in a vial and then vortexing the mixture for 3 min with a stir bar inside.
(§2) MPTP mouse models of PD are described by (Przedborski & Vila, 2003). […] Behavioral testing via the wire test and tissue harvesting followed.
Copper uptake in brain and in plasma was measured by inductively-coupled plasma mass spectrometry (ICPMS) determination of the naturally-occurring copper isotope Cu-63. Brain tissue was obtained from the left hemisphere of the brain.

For another data set, the system named is MPTP-lesioned mice. Kind of data set: Neutral Red positive cell count in substantia nigra of MPTP-lesioned mice. The class given is in vivo, mouse. To be noted: 30 mg/kg API oral for 21 days. As for the experimental part:
as §1, §2
Neuroprotective effects of the CuATSM and NCDs were determined by cell count.
Following the wire pull-up time tests, the mice were anesthetized, blood samples were then obtained for plasma studies, and the mice were then sacrificed by an overdose of anesthetic. Mice were then immediately perfused with cold PBS. The right hemisphere of the brain was placed in 5 ml of chilled 4% wt/vol paraformaldehyde (Sigma-Aldrich) in 0.1 M phosphate buffer overnight at 4° C. and pH 7.4. The brains were then removed and left at 4° C. overnight in 30% wt/vol sucrose (domestic grade) in PBS before being frozen and sectioned on a cryostat. Brains were cut coronally into 30-μm sections in a 1:3 series for the substantia nigra pars compacta (SNpc).
The resulting sections were stained with Neutral Red (Niss1 stain; Sigma-Aldrich). Just prior to immunostaining, the frozen sections are fixed again for 5 min in order to ensure that the brain sections are properly fixed to the glass slide. SNpc nuclei from both normal and lesioned animals were examined. […]
The total number of neurons in the substania nigra was estimated using fractionator sampling (Finkelstein et al., 2000; Stanic et al., 2003; West & Gundersen, 1990). […] The entire SNpc was sampled at every third section and analyzed in a series having a random offset for each brain. […]

Data set [2] can be described thus: Kinetic solubility determination (μDISS Profiler, in situ fiber optic UV). To be noted: for dissolved CuATSM as share of the total available in the assay: gluconic acid NCD at the 0.3 hour time point. As for the experimental part: Solubility assays were performed in 25 mL glass vials. Glass vials (4-mL, capped, VWR) were used to prepare stock solutions. All experiments were conducted using μDISS Profiler™ operated by μDISS Command Software (version 5.0.1.0). MB-8 mini-water bath with built-in stirring device was used to provide stirring during solubility measurements. Temperature during experiments was maintained at 25±2° C., and were performed in duplicate.
An HCl/KCl based buffer at pH 1.2 and a simulated intestinal fluid at pH 6.8 (no pancreatin) were prepared according USP protocols (Vol 35/NF30). […] The concentration measurements are performed directly in the dissolution media, with processed results plotted in real time using the μDISS Profiler™ (Pion) instrument. The Profiler uses an in situ fiber optic-dip probe UV apparatus, with the probe center-positioned in the vial holding the studied compounds and 10-20 mL of media. Interference due to background turbidity was minimized when needed by a spectral second derivative method (Avdeef, A; Tsinman, O. “Miniaturized Rotating Disk Intrinsic Dissolution Rate Measurement: Effects of Buffer Capacity in Comparisons to Traditional Wood's Apparatus”, Pharm. Res., 2008, DOI: 10.1007/s11095-008-96-79-z).
The 2 and 20 mm path length tips were selected for detecting the concentration of CuATSM at pH 1.2 and pH 6.8 respectively. A dry CuATSM powder was dissolved in DMSO resulting a stock solution at known concentration, and then the solution was used to generate standard curves by serial addition. Standard curves were determined from the area under the second derivative curve in wavelength range 340-366 nm (for pH 1.2) and 445-465 nm (for pH 6.8) so as to avoid over saturation of the UV signal.
The solubility of CuATSM was determined in pH 6.8 buffer. Samples of CuATSM were introduced into pH 6.8 buffer as powders, thus, unlike for standards, the final solutions contained no solvents in the background. The 20 mm (at pH 6.8) path length tip was selected for detecting the concentration of CuATSM in solution. All experiments were performed at room temperature 25±3° C.
The 20 mm pathlength tip was selected for detecting the concentration of the compounds in pH 6.8 buffer solution. All experiments were performed at room temperature, 25±3° C., and were performed in duplicate.
Kinetic solubility determination of CuATSM:saccharin (1:2). CuATSM:saccharin (1:2) was prepared according to the methods of EXAMPLE 3. The kinetic solubility profile of CuATSM:saccharin (1:2) was determined in pH 6.8 buffer similarly to the methods given in EXAMPLE 13 and EXAMPLE 14. Standard curves of CuATSM:saccharin (1:2) and saccharin were generated and compared to the standard curves of CuATSM. Saccharin concentrations in the buffer solution were determined from the saccharin standard curves in the 292-310 nm wavelength region, using the Zero Intercept Method so as to minimize spectral interference from CuATSM. […] The upper concentration limit of the assay was approximately 0.12 mg/mL of CuATSM:saccharin (1:2), resulting in upper concentrations limits for CuATSM and for saccharin in solution approximately 60 μg/mL each. All experiments were performed at about 25±3° C., and were performed in duplicate.

Setting [3] is: MPTP-lesioned mice, 30 mg/kg API oral for 21 days.
Setting [4] is: MPTP-lesioned mice, 30 mg/kg API oral for 21 days, ICPMS.
Where [5] appears, read: pH 6.8 buffer, powder added, 25±3° C., 12-hour monitoring.

Take `CNC1=NN=C(C)C(C)=NN=C(NC)[S][Cu][S]1.O=C(O)C(O)C(O)C(O)C(O)CO.O=C(O)C(O)C(O)C(O)C(O)CO` [CuATSM:gluconic acid (1:2)]: in data set [1] (setting [3]), the “Cu-63 concentrations in brain tissue as compared to the SSV control” value is on record as “significant (all p<0.001) increase” and the “Cu-63 concentrations in plasma as compared to the SSV control” value was “No treatments resulted in significant (all p>0.05) change”. Further, in data set [1] (setting [4]), the “Cu-63 in brain, Average” value turned out to be 22.20 µg/g and the “Cu-63 in plasma, Average” value is 5.27 μmol/ltr. Moreover, the “neurons in the substania nigra as compared to SSV control” value (from here on “neurons … compared to SSV control”) in the data set on MPTP-lesioned mice is “significant (all p<0.01 or less) recovery of the neurons”. Moreover, in data set [2] (DMSO stock solution), the “solubility in DMSO (did not fully dissolve at)” value was below 400 µg/mL. Further, the “time to maximum concentration of CuATSM” value in data set [2] (pH 1.2 KCl/HCl buffer) is at most 0.3 h. For the same compound, in data set [2] (pH 1.2 KCl/HCl buffer, 3-hour monitoring), the “maximum concentration of CuATSM in solution” value was “approximately 195 μg/mL”. Moreover, in data set [2] (pH 1.2 buffer, within 0.3 hours, kept for 3 hours), the “dissolved CuATSM as share of the total amount of CuATSM in the sample” value is reported as 33%. The “time to maximum concentration of CuATSM” value in data set [2] (pH 6.8 buffer, 25±3° C.) is at most 0.11 h. Moreover, in data set [2] (pH 6.8 buffer, 450 nm shifted to 415 nm within the first 0.3 hours), the “change in the chemical identity of CuATSM after dissolution (UV spectral shifts)” value is “reaction or decomposition”. Besides, the “maximum concentration of CuATSM in solution” value in data set [2] (setting [5]) was “approximately 3 μg/mL”. The “dissolved CuATSM as share of the total available in the assay” value in data set [2] (pH 6.8 buffer) is listed as “less than 1%”.

For `CNC1=NN=C(C)C(C)=NN=C(NC)[S][Cu][S]1` [CuATSM, Copper(II) diacetyl-di(N4-methyl)thiosemicarbazone, reference compound], in data set [1] (mouse, in vivo, po, 30 mg/kg), the “Cu-63 in brain, Average” value was 18.48 µg/g and the “Cu-63 in plasma, Average” value is 5.40 μmol/ltr. The “neurons … compared to SSV control” value in the data set with MPTP-lesioned mice is reported as “significant (all p<0.01 or less) recovery of the neurons”. In data set [2] (pH 6.8), the “concentration of CuATSM at the end of the 12-hour monitoring period” value was “remained at that concentration” and the “time to maximum concentration of CuATSM” value was “approximately 8 hours”.

For the compound `CNC1=NN=C(C)C(C)=NN=C(NC)[S][Cu][S]1.O=C1NS(=O)(=O)c2ccccc21.O=C1NS(=O)(=O)c2ccccc21` [CuATSM:saccharin (1:2)], in data set [1] (setting [3]), the “Cu-63 concentrations in brain tissue as compared to the SSV control” value is reported as “significant (all p<0.001) increase” and the “Cu-63 concentrations in plasma as compared to the SSV control” value was “No treatments resulted in significant (all p>0.05) change”. For the same compound, in data set [1] (setting [4]), the “Cu-63 in brain, Average” value is 14.66 µg/g and the “Cu-63 in plasma, Average” value came to 6.13 μmol/ltr. Also, the “neurons … compared to SSV control” value in the data set on MPTP-lesioned mice is reported as “significant (all p<0.01 or less) recovery of the neurons”. Further, in data set [2] (pH 6.8 buffer), the “time to maximum concentration of saccharin” value is at most 0.3 h and the “dissolved CuATSM as share of the total available in the assay” value is “less than 1%”. Moreover, in data set [2] (pH 6.8 buffer, 25±3° C.), the “concentration of CuATSM at the end of the 12-hour monitoring period” value is reported as “approximately 1 μg/mL” and the “time to maximum concentration of CuATSM” value is at most 0.8 h. The “maximum concentration of CuATSM in solution” value in data set [2] (setting [5]) is “approximately 2 μg/mL”. In addition, the “maximum concentration of saccharin in solution” value in data set [2] (pH 6.8 buffer, unchanged over the 12-hour monitoring period) is “approximately 60 μg/mL”.

These data come from patent publication US11266686B2, “Metal complexes and methods of treatment” (PROCYPRA THERAPEUTICS LLC, priority 2013, dated 2022).
